Columns and labels:
[1] = test system: diarrhea caused by a chemotherapeutic agent in Balb/c mice; test: Examples 382-405 (Table 7): various administration modes of the CDK inhibitor, relief of diarrhea caused by a chemotherapeutic agent; format: in vivo; settings: cycle 8 days
From the text: Balb/c mice were fed for 1 week, and then divided into groups. The experiment was divided into a control group, a chemotherapeutic agent group, CDK inhibitor groups (including an oral administration group of a CDK inhibitor, an intraperitoneal injection group of a CDK inhibitor, an intramuscular injection group of a CDK inhibitor, a local administration group of a CDK inhibitor), each of which comprised 10 mice, to perform the administration experiment, for which the administration dosage, mode, time and frequency were shown in Table 7. The control group: being administered with the same solvent as that used in the CDK inhibitor group (the time and mode were shown in Table 7), and then being injected/intragastrically administered with the same solvent as that used in the chemotherapeutic agent group (the administration mode was shown in Table 7): the chemotherapeutic agent group: being administered with the same solvent as that used in the CDK inhibitor group (the time and mode were shown in Table 7), and then being injected/intragastrically administered with the chemotherapeutic agent (the type, administration mode and dosage were shown in Table 7): the oral administration group of the CDK inhibitor: being intragastrically administered with the CDK inhibitor (the time was shown in Table 7), and then being administered with the chemotherapeutic agent (the mode and dosage were shown in Table 7): the intraperitoneal injection group of the CDK inhibitor: being intraperitoneally injected with the CDK inhibitor (the time was shown in Table 7), and then being administered with the chemotherapeutic agent (the mode and dosage were shown in Table 7): the intramuscular injection group of the CDK inhibitor: being intramuscularly injected with the CDK inhibitor (the time was shown in Table 7), and then being administered with the chemotherapeutic agent (the mode and dosage were shown in Table 7); and the local administration group of the CDK inhibitor: the hair on the abdomen of mice was shaved (about 2 cm*2 cm), being applied with the CDK inhibitor (the time was shown in Table 7), and then being administered with the chemotherapeutic agent (the mode and dosage were shown in Table 7).
The diarrhea grading of mice was observed and recorded every day.

[2] = test system: constipation caused by a chemotherapeutic agent in Balb/c mice; test: Examples 406-443 (Table 8): various administration modes of the CDK inhibitor, relief of constipation caused by a chemotherapeutic agent; format: in vivo;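 note: percent of treated mice relieved versus chemotherapy group by feces reduction rate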
From the text: Balb/c mice were fed for 1 week, and then divided into groups. The experiment was divided into a control group, a chemotherapeutic agent group, CDK inhibitor groups (including an oral administration group of a CDK inhibitor, an intravenous injection group of a CDK inhibitor, an intraperitoneal injection group of a CDK inhibitor, an intramuscular injection group of a CDK inhibitor, a local administration group of a CDK inhibitor), each of which comprised 10 mice, to perform the administration experiment, for which the administration dosage, mode, time and frequency were shown in Table 8. The control group: being administered with the same solvent as that used in the CDK inhibitor group (the time and mode were shown in Table 8), and then being injected/intragastrically administered with the same solvent as that used in the chemotherapeutic agent group (the administration mode was shown in Table 8): the chemotherapeutic agent group: being administered with the same solvent as that used in the CDK inhibitor group (the time and mode were shown in Table 8), and then being injected/intragastrically administered with the chemotherapeutic agent (the type, administration mode and dosage were shown in Table 8): the oral administration group of the CDK inhibitor: being intragastrically administered with the CDK inhibitor (the time was shown in Table 8), and then being administered with the chemotherapeutic agent (the mode and dosage were shown in Table 8): the intravenous injection group of the CDK inhibitor: being injected with the CDK inhibitor through tail vein (the time was shown in Table 8), and then being administered with the chemotherapeutic agent (the mode and dosage were shown in Table 8): the intraperitoneal injection group of the CDK inhibitor: being intraperitoneally injected with the CDK inhibitor (the time was shown in Table 8), and then being administered with the chemotherapeutic agent (the mode and dosage were shown in Table 8): the intramuscular injection group of the CDK inhibitor: being intramuscularly injected with the CDK inhibitor (the time was shown in Table 8), and then being administered with the chemotherapeutic agent (the mode and dosage were shown in Table 8); and the local administration group of the CDK inhibitor: the hair on the abdomen of mice was shaved (about 2 cm*2 cm), being applied with the CDK inhibitor (the time was shown in Table 8), and then being administered with the chemotherapeutic agent (the mode and dosage were shown in Table 8).
Feces reduction rate (%)=(the control group−the chemotherapeutic agent group or the CDK inhibitor group)/the control group*100%
The feces amount of mice within 3 hours was observed and recorded every day.

Structure (SMILES): CC(=O)c1c(C)c2cnc(Nc3ccc(N4CCNCC4)cn3)nc2n(C2CCCC2)c1=O [Palbociclib]
- Relative remission rate of other administration mode ([1]; Example 382, Docetaxel (DTX) intraperitoneal injection 10 mg/kg single, CDK inhibitor intraperitoneal injection 150 mg/kg single, 0.5 h before): 10%
- Relative remission rate of oral administration ([1]; Example 382, Docetaxel (DTX) intraperitoneal injection 10 mg/kg single, CDK inhibitor oral 150 mg/kg single, 0.5 h before): 40%
- Relative remission rate of other administration mode ([1]; Example 383, Docetaxel (DTX) intraperitoneal injection 10 mg/kg single, CDK inhibitor intraperitoneal injection 150 mg/kg single, 4 h before): 10%
- Relative remission rate of oral administration ([1]; Example 383, Docetaxel (DTX) intraperitoneal injection 10 mg/kg single, CDK inhibitor oral 150 mg/kg single, 4 h before): 40%
- Relative remission rate of other administration mode ([1]; Example 384, Docetaxel (DTX) intraperitoneal injection 10 mg/kg single, CDK inhibitor intraperitoneal injection 150 mg/kg single, 8 h before): 10%
- Relative remission rate of oral administration ([1]; Example 384, Docetaxel (DTX) intraperitoneal injection 10 mg/kg single, CDK inhibitor oral 150 mg/kg single, 8 h before): 50%
- Relative remission rate of other administration mode ([1]; Example 385, Docetaxel (DTX) intraperitoneal injection 10 mg/kg single, CDK inhibitor intraperitoneal injection 150 mg/kg single, 12 h before): 20%
- Relative remission rate of oral administration ([1]; Example 385, Docetaxel (DTX) intraperitoneal injection 10 mg/kg single, CDK inhibitor oral 150 mg/kg single, 12 h before): 70%
- Relative remission rate of other administration mode ([1]; Example 386, Docetaxel (DTX) intraperitoneal injection 10 mg/kg single, CDK inhibitor intraperitoneal injection 150 mg/kg single, 24 h before): 10%
- Relative remission rate of oral administration ([1]; Example 386, Docetaxel (DTX) intraperitoneal injection 10 mg/kg single, CDK inhibitor oral 150 mg/kg single, 24 h before): 50%
- Relative remission rate of other administration mode ([1]; Example 403, Gemcitabine (GEM) intravenous injection 120 mg/kg single, CDK inhibitor intravenous injection 200 mg/kg single, 12 h before): 20%
- Relative remission rate of oral administration ([1]; Example 403, Gemcitabine (GEM) intravenous injection 120 mg/kg single, CDK inhibitor oral 200 mg/kg single, 12 h before): 60%
- Relative remission rate of other administration mode ([2]; Example 406, Doxorubicin (Dox) intraperitoneal injection 12 mg/kg single, CDK inhibitor intravenous injection 150 mg/kg single, 0.5 h before, cycle 8 days): 10%
- Relative remission rate of oral administration ([2]; Example 406, Doxorubicin (Dox) intraperitoneal injection 12 mg/kg single, CDK inhibitor oral 150 mg/kg single, 0.5 h before, cycle 8 days): 20%
- Relative remission rate of other administration mode ([2]; Example 407, Doxorubicin (Dox) intraperitoneal injection 12 mg/kg single, CDK inhibitor intravenous injection 150 mg/kg single, 4 h before, cycle 8 days): 10%
- Relative remission rate of oral administration ([2]; Example 407, Doxorubicin (Dox) intraperitoneal injection 12 mg/kg single, CDK inhibitor oral 150 mg/kg single, 4 h before, cycle 8 days): 30%
- Relative remission rate of other administration mode ([2]; Example 408, Doxorubicin (Dox) intraperitoneal injection 12 mg/kg single, CDK inhibitor intravenous injection 150 mg/kg single, 8 h before, cycle 8 days): 10%
- Relative remission rate of oral administration ([2]; Example 408, Doxorubicin (Dox) intraperitoneal injection 12 mg/kg single, CDK inhibitor oral 150 mg/kg single, 8 h before, cycle 8 days): 30%
- Relative remission rate of other administration mode ([2]; Example 409, Doxorubicin (Dox) intraperitoneal injection 12 mg/kg single, CDK inhibitor intravenous injection 150 mg/kg single, 12 h before, cycle 8 days): 20%
- Relative remission rate of oral administration ([2]; Example 409, Doxorubicin (Dox) intraperitoneal injection 12 mg/kg single, CDK inhibitor oral 150 mg/kg single, 12 h before, cycle 8 days): 50%
- Relative remission rate of other administration mode ([2]; Example 410, Doxorubicin (Dox) intraperitoneal injection 12 mg/kg single, CDK inhibitor intravenous injection 150 mg/kg single, 24 h before, cycle 8 days): 20%
- Relative remission rate of oral administration ([2]; Example 410, Doxorubicin (Dox) intraperitoneal injection 12 mg/kg single, CDK inhibitor oral 150 mg/kg single, 24 h before, cycle 8 days): 40%
- Relative remission rate of other administration mode ([2]; Example 415, Etoposide (Etop1) intraperitoneal injection 100 mg/kg single, CDK inhibitor intravenous injection 150 mg/kg single, 0.5 h before, cycle 8 days): 10%
- Relative remission rate of oral administration ([2]; Example 415, Etoposide (Etop1) intraperitoneal injection 100 mg/kg single, CDK inhibitor oral 150 mg/kg single, 0.5 h before, cycle 8 days): 20%
- Relative remission rate of other administration mode ([2]; Example 416, Etoposide (Etop1) intraperitoneal injection 100 mg/kg single, CDK inhibitor intravenous injection 150 mg/kg single, 4 h before, cycle 8 days): 20%
- Relative remission rate of oral administration ([2]; Example 416, Etoposide (Etop1) intraperitoneal injection 100 mg/kg single, CDK inhibitor oral 150 mg/kg single, 4 h before, cycle 8 days): 40%
- Relative remission rate of other administration mode ([2]; Example 417, Etoposide (Etop1) intraperitoneal injection 100 mg/kg single, CDK inhibitor intravenous injection 150 mg/kg single, 8 h before, cycle 8 days): 20%
- Relative remission rate of oral administration ([2]; Example 417, Etoposide (Etop1) intraperitoneal injection 100 mg/kg single, CDK inhibitor oral 150 mg/kg single, 8 h before, cycle 8 days): 40%
- Relative remission rate of other administration mode ([2]; Example 418, Etoposide (Etop1) intraperitoneal injection 100 mg/kg single, CDK inhibitor intravenous injection 150 mg/kg single, 12 h before, cycle 8 days): 10%
- Relative remission rate of oral administration ([2]; Example 418, Etoposide (Etop1) intraperitoneal injection 100 mg/kg single, CDK inhibitor oral 150 mg/kg single, 12 h before, cycle 8 days): 30%
- Relative remission rate of other administration mode ([2]; Example 419, Etoposide (Etop1) intraperitoneal injection 100 mg/kg single, CDK inhibitor intravenous injection 150 mg/kg single, 24 h before, cycle 8 days): 10%
- Relative remission rate of oral administration ([2]; Example 419, Etoposide (Etop1) intraperitoneal injection 100 mg/kg single, CDK inhibitor oral 150 mg/kg single, 24 h before, cycle 8 days): 30%
- Relative remission rate of other administration mode ([2]; Example 422, Etoposide and cisplatin intravenous injection 50 and 5 mg/kg single, CDK inhibitor intravenous injection 150 mg/kg single, 0.5 h before, cycle 7 days): 10%
- Relative remission rate of oral administration ([2]; Example 422, Etoposide and cisplatin intravenous injection 50 and 5 mg/kg single, CDK inhibitor oral 150 mg/kg single, 0.5 h before, cycle 7 days): 40%
- Relative remission rate of other administration mode ([2]; Example 423, Etoposide and cisplatin intravenous injection 50 and 5 mg/kg single, CDK inhibitor intravenous injection 150 mg/kg single, 24 h before, cycle 7 days): 20%
- Relative remission rate of oral administration ([2]; Example 423, Etoposide and cisplatin intravenous injection 50 and 5 mg/kg single, CDK inhibitor oral 150 mg/kg single, 24 h before, cycle 7 days): 60%
- Relative remission rate of other administration mode ([2]; Example 437, Gemcitabine intravenous injection 120 mg/kg single, CDK inhibitor intravenous injection 200 mg/kg single, 12 h before, cycle 8 days): 20%
- Relative remission rate of oral administration ([2]; Example 437, Gemcitabine intravenous injection 120 mg/kg single, CDK inhibitor oral 200 mg/kg single, 12 h before, cycle 8 days): 50%
